# US6355799B1, “Substituted benzene compounds, process for their preparation, and herbicidal and defoliant compositions containing them” (ISK Americas Incorporated, priority 1997, dated 2002)
# Tests used:
# Format in all cases: in vivo
# [1] = tested on: redroot pigweed (Amaranthus retroflexus, AMARE); assay: Pre-emerge test, greenhouse herbicide activity screening; details: pre-emerge, phytotoxicity rating 0-100 at 14 days after application
# How it was run: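 Rating: 0–100 visual injury, 14 DAA. Application: acetone, 187 l/ha, 15–1000 g ai/ha, flat-fan track sprayer with nozzle 40–45 cm above soil or canopy. Post-emerge runs used 0.25% v/v surfactant on 2–3 leaf plants.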
# [2] = tested on: barnyardgrass (Echinochloa crus-galli, ECHCG); assay: as above; details: pre-emerge, phytotoxicity rating 0-100 at 14 days after application
# How it was run: (§1)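 Applied at 15–1000 g ai/ha from acetone in 187 l/ha spray volume. Post-emergence applications included 0.25% v/v non-ionic surfactant and reached plants sown 8–21 days before. Pre-emergence applications were incorporated by surface watering. Efficacy or crop damage was rated on a 0–100 scale after 14 days.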
# [3] = tested on: green foxtail (Setaria viridis, SETVI); assay: as above; details: pre-emerge, phytotoxicity rating 0-100 at 14 days after application
# How it was run: as §1
# [4] = tested on: ivyleaf morningglory (Ipomoea hederacea, IPOHE); assay: as above; details: pre-emerge, phytotoxicity rating 0-100 at 14 days after application
# How it was run: as §1
# [5] = tested on: johnsongrass (Sorghum halepense, SORHA); assay: as above; details: pre-emerge, phytotoxicity rating 0-100 at 14 days after application
# How it was run: as §1
# [6] = tested on: lambsquarters (Chenopodium album, CHEAL); assay: as above; details: pre-emerge, phytotoxicity rating 0-100 at 14 days after application
# How it was run: as §1
# [7] = tested on: large crabgrass (Digitaria sanguinalis, DIGSA); assay: as above; details: pre-emerge, phytotoxicity rating 0-100 at 14 days after application
# How it was run: as §1
# [8] = tested on: sicklepod (Cassia obtusifolia, CASOB); assay: as above; details: pre-emerge, phytotoxicity rating 0-100 at 14 days after application
# How it was run: as §1
# [9] = tested on: velvetleaf (Abutilon theophrasti, ABUTH); assay: as above; details: pre-emerge, phytotoxicity rating 0-100 at 14 days after application
# How it was run: as §1
# [10] = tested on: field corn (Zea mays L., var. Dekalb 535, CORN); assay: Pre-emerge test, crop safety; details: crop damage, pre-emerge, phytotoxicity rating 0-100 at 14 days after application
# How it was run: (§2)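 Compounds in acetone were track-sprayed at 15-1000 g ai/ha (187 l/ha) on sandy loam pots: pre-emerge one day after seeding, post-emerge at 2-3 leaf stage with 0.25% v/v non-ionic surfactant. Phytotoxicity was rated 14 days later on a 0 (no damage) to 100 (complete death) scale.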
# [11] = tested on: upland rice (Oryza sp., var. Tebonnet, RICE); assay: Pre-emerge test, crop safety; details: crop damage, pre-emerge, phytotoxicity rating 0-100 at 14 days after application
# How it was run: as §2
# [12] = tested on: barnyardgrass (Echinochloa crus-galli, ECHCG); assay: Post-emerge test, greenhouse herbicide activity screening; details: post-emerge, phytotoxicity rating 0-100 at 14 days after application
# How it was run: (§3)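 Plants grown in 10 cm pots of sandy loam mix received acetone-dissolved compounds through a moving flat-fan nozzle. Doses ranged from 15 to 1000 g ai/ha. Pre-emerge pots were seeded one day earlier, post-emerge pots 8–21 days earlier. Fourteen days on, each pot was graded 0–100 for damage.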
# [13] = tested on: green foxtail (Setaria viridis, SETVI); assay: as above; details: post-emerge, phytotoxicity rating 0-100 at 14 days after application
# How it was run: as §3
# [14] = tested on: ivyleaf morningglory (Ipomoea hederacea, IPOHE); assay: as above; details: post-emerge, phytotoxicity rating 0-100 at 14 days after application
# How it was run: as §3
# [15] = tested on: johnsongrass (Sorghum halepense, SORHA); assay: as above; details: post-emerge, phytotoxicity rating 0-100 at 14 days after application
# How it was run: as §3
# [16] = tested on: lambsquarters (Chenopodium album, CHEAL); assay: as above; details: post-emerge, phytotoxicity rating 0-100 at 14 days after application
# How it was run: as §3
# [17] = tested on: large crabgrass (Digitaria sanguinalis, DIGSA); assay: as above; details: post-emerge, phytotoxicity rating 0-100 at 14 days after application
# How it was run: as §3
# [18] = tested on: redroot pigweed (Amaranthus retroflexus, AMARE); assay: as above; details: post-emerge, phytotoxicity rating 0-100 at 14 days after application
# How it was run: as §3
# [19] = tested on: sicklepod (Cassia obtusifolia, CASOB); assay: as above; details: post-emerge, phytotoxicity rating 0-100 at 14 days after application
# How it was run: as §3
# [20] = tested on: velvetleaf (Abutilon theophrasti, ABUTH); assay: as above; details: post-emerge, phytotoxicity rating 0-100 at 14 days after application
# How it was run: as §3
# [21] = tested on: field corn (Zea mays L., var. Dekalb 535, CORN); assay: Post-emerge test, crop safety; details: post-emerge, crop damage rating 0-100 at 14 days after application
# How it was run: as §1
# [22] = tested on: upland rice (Oryza sp., var. Tebonnet, RICE); assay: Post-emerge test, crop safety; details: post-emerge, crop damage rating 0-100 at 14 days after application
# How it was run: as §1
smiles,measurement,setting,value
COc1ccc(COC(=O)Nc2c(C)c(Cl)cc(F)c2-n2c(=O)cc(C(F)(F)F)n(C)c2=O)cc1OC [4-63],Pre-emerge Herbicidal Activity AMARE,[1]; rate 63 g ai/ha,100
same,Pre-emerge Herbicidal Activity AMARE,[1]; rate 250 g ai/ha,100
same,Pre-emerge Herbicidal Activity ECHCG,[2]; rate 63 g ai/ha,30
same,Pre-emerge Herbicidal Activity ECHCG,[2]; rate 250 g ai/ha,70
same,Pre-emerge Herbicidal Activity SETVI,[3]; rate 63 g ai/ha,70
same,Pre-emerge Herbicidal Activity SETVI,[3]; rate 250 g ai/ha,100
same,Pre-emerge Herbicidal Activity IPOHE,[4]; rate 63 g ai/ha,40
same,Pre-emerge Herbicidal Activity IPOHE,[4]; rate 250 g ai/ha,100
same,Pre-emerge Herbicidal Activity SORHA,[5]; rate 63 g ai/ha,30
same,Pre-emerge Herbicidal Activity SORHA,[5]; rate 250 g ai/ha,50
same,Pre-emerge Herbicidal Activity CHEAL,[6]; rate 63 g ai/ha,100
same,Pre-emerge Herbicidal Activity CHEAL,[6]; rate 250 g ai/ha,100
same,Pre-emerge Herbicidal Activity DIGSA,[7]; rate 63 g ai/ha,70
same,Pre-emerge Herbicidal Activity DIGSA,[7]; rate 250 g ai/ha,95
same,Pre-emerge Herbicidal Activity CASOB,[8]; rate 63 g ai/ha,40
same,Pre-emerge Herbicidal Activity CASOB,[8]; rate 250 g ai/ha,100
same,Pre-emerge Herbicidal Activity ABUTH,[9]; rate 63 g ai/ha,100
same,Pre-emerge Herbicidal Activity ABUTH,[9]; rate 250 g ai/ha,100
same,Pre-emerge Herbicidal Activity CORN,[10]; rate 63 g ai/ha,0
same,Pre-emerge Herbicidal Activity CORN,[10]; rate 250 g ai/ha,35
same,Pre-emerge Herbicidal Activity RICE,[11]; rate 63 g ai/ha,40
same,Pre-emerge Herbicidal Activity RICE,[11]; rate 250 g ai/ha,90
same,Post-emerge Herbicidal Activity ECHCG,[12]; 63 g ai/ha,0
same,Post-emerge Herbicidal Activity ECHCG,[12]; 250 g ai/ha,20
same,Post-emerge Herbicidal Activity SETVI,[13]; 63 g ai/ha,0
same,Post-emerge Herbicidal Activity SETVI,[13]; 250 g ai/ha,30
same,Post-emerge Herbicidal Activity IPOHE,[14]; 63 g ai/ha,100
same,Post-emerge Herbicidal Activity IPOHE,[14]; 250 g ai/ha,100
same,Post-emerge Herbicidal Activity SORHA,[15]; 63 g ai/ha,0
same,Post-emerge Herbicidal Activity SORHA,[15]; 250 g ai/ha,10
same,Post-emerge Herbicidal Activity CHEAL,[16]; 63 g ai/ha,80
same,Post-emerge Herbicidal Activity CHEAL,[16]; 250 g ai/ha,100
same,Post-emerge Herbicidal Activity DIGSA,[17]; 63 g ai/ha,0
same,Post-emerge Herbicidal Activity DIGSA,[17]; 250 g ai/ha,10
same,Post-emerge Herbicidal Activity AMARE,[18]; 63 g ai/ha,100
same,Post-emerge Herbicidal Activity AMARE,[18]; 250 g ai/ha,100
same,Post-emerge Herbicidal Activity CASOB,[19]; 63 g ai/ha,60
same,Post-emerge Herbicidal Activity CASOB,[19]; 250 g ai/ha,100
same,Post-emerge Herbicidal Activity ABUTH,[20]; 63 g ai/ha,100
same,Post-emerge Herbicidal Activity ABUTH,[20]; 250 g ai/ha,100
same,Post-emerge Herbicidal Activity CORN,[21]; 63 g ai/ha,10
same,Post-emerge Herbicidal Activity CORN,[21]; 250 g ai/ha,30
same,Post-emerge Herbicidal Activity RICE,[22]; 63 g ai/ha,10
same,Post-emerge Herbicidal Activity RICE,[22]; 250 g ai/ha,60
